Measured values: patent publication US12410208B2, “(2-acetamidyl)thio-beta-D-galactopyranoside derivatives” (Idorsia Pharmaceuticals Ltd, priority 2020, dated 2025)
Where two headings read alike, the source gives them in different places.

Biological target: biotinylated human Gal-3 (hGal-3) (Homo sapiens, UniProt P17931)
Assay: Competitive binding assay: biotinylated hGal-3 binding to microplate-adsorbed asialofetuin (ASF), spectrophotometric
Experimental: If not explicitly mentioned otherwise, the inhibition data refer to the binding of biotinylated human Gal-3 (hGal-3).
Biological Assay Evaluation of Compound Inhibitory Activity (IC50)
The inhibitory activity of compounds is determined in competitive binding assays.
Briefly, compounds are serially diluted in DMSO (working dilutions).
Plates are incubated for 3 hours at 4° C., then washed with cold assay buffer (3×50 uL), incubated for 1 hour with 25 μL/well of a streptavidin-peroxidase solution (diluted in assay buffer to 80 ng/mL) at 4° C., followed by further washing steps with assay buffer (3×50 uL). Finally, 25 μL/well of ABTS substrate is added.
The calculated IC50 values may fluctuate depending on the daily assay performance. Fluctuations of this kind are known to those skilled in the art. IC50 values from several measurements are given as mean values.

[1] = Table 11, hGal-3, read-out: IC50 (Gal-3 inhibition)
[2] = Gal-3 inhibition, Table 7, read-out: IC50
[3] = Table 6, hGal-3, read-out: IC50 (Gal-3 inhibition)
[4] = Table 12, hGal-3, read-out: IC50 (Gal-3 inhibition)
[5] = Gal-3 inhibition, Table 4, read-out: IC50

Chain of biotinylated human Gal-3 (hGal-3) (P17931 whole entry): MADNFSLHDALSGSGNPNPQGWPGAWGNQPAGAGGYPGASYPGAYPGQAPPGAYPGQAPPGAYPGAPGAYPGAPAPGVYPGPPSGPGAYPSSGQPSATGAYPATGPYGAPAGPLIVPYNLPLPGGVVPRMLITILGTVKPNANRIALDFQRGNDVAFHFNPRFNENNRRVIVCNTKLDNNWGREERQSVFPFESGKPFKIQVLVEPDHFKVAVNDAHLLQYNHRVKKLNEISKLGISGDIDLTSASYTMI

`Cc1cc(-c2cn([C@H]3[C@@H](O)[C@@H](CO)O[C@@H](S[C@H](C(=O)N(C)C4CC4)C4(O)CCC(F)(F)CC4)[C@@H]3O)nn2)cnc1F` [Example 21.44.221S, (S)-N-Cyclopropyl-2-(4,4-difluoro-1-hydroxycyclohexyl)-2-(((2S,3R,4S,5R,6R)-4-(4-(6-fluoro-5-methylpyridin-3-yl)-1H-1,2,3-triazol-1-yl)-3,5-dihydroxy-6-(hydroxymethyl)tetrahydro-2H-pyran-2-yl)thio)-N-methylacetamide] was tested. Which IC50 [1] did it give?
The IC50 was 50 nM.

With `Cc1cc(-c2cn([C@H]3[C@@H](O)[C@@H](CO)O[C@@H](S[C@@H](C(=O)N(C)C4CC4)C4(O)CCC(F)(F)CC4)[C@@H]3O)nn2)cnc1F` [Example 21.44.221R, (R)-N-Cyclopropyl-2-(4,4-difluoro-1-hydroxycyclohexyl)-2-(((2S,3R,4S,5R,6R)-4-(4-(6-fluoro-5-methylpyridin-3-yl)-1H-1,2,3-triazol-1-yl)-3,5-dihydroxy-6-(hydroxymethyl)tetrahydro-2H-pyran-2-yl)thio)-N-methylacetamide] as the compound, how does the IC50 [1] read?
Its IC50 is 230 nM.

Which IC50 [2] does the source give for `CCN(C)C(=O)C(S[C@@H]1O[C@H](CO)[C@H](O)[C@H](n2cc(-c3cc(F)c(F)c(F)c3)nn2)[C@H]1O)C(O)Cc1ccccc1` (stereo partly drawn) [Example 2.64.203., 2-(((2S,3R,4S,5R,6R)-3,5-Dihydroxy-6-(hydroxymethyl)-4-(4-(3,4,5-trifluorophenyl)-1H-1,2,3-triazol-1-yl)tetrahydro-2H-pyran-2-yl)thio)-N-ethyl-3-hydroxy-N-methyl-4-phenylbutanamide] here?
Its IC50 is 220 nM.

With `CC(C)(O)[C@H](S[C@@H]1O[C@H](CO)[C@H](O)[C@H](n2cc(-c3cc(F)c(F)c(F)c3)nn2)[C@H]1O)C(=O)N1CCCC1` [Example 2.31.211S, (S)-2-(((2S,3R,4S,5R,6R)-3,5-Dihydroxy-6-(hydroxymethyl)-4-(4-(3,4,5-trifluorophenyl)-1H-1,2,3-triazol-1-yl)tetrahydro-2H-pyran-2-yl)thio)-3-hydroxy-3-methyl-1-(pyrrolidin-1-yl)butan-1-one] as the compound, how does the IC50 [3] read?
The IC50 was 80 nM.

How did the IC50 [3] turn out when `CC(C)(O)[C@@H](S[C@@H]1O[C@H](CO)[C@H](O)[C@H](n2cc(-c3cc(F)c(F)c(F)c3)nn2)[C@H]1O)C(=O)N1CCCC1` [Example 2.31.211R., (R)-2-(((2S,3R,4S,5R,6R)-3,5-Dihydroxy-6-(hydroxymethyl)-4-(4-(3,4,5-trifluorophenyl)-1H-1,2,3-triazol-1-yl)tetrahydro-2H-pyran-2-yl)thio)-3-hydroxy-3-methyl-1-(pyrrolidin-1-yl)butan-1-one] was run?
Its IC50 is 310 nM.

For `CO[C@@H]1[C@@H](n2cc(-c3cc(F)c(F)c(F)c3)nn2)[C@@H](O)[C@@H](CO)O[C@H]1SC(C(=O)NC1CCC(C)(C)CC1)C1(O)CCC(F)(F)CC1` (stereo partly drawn) [Example 2.44.255.I, 2-(4,4-Difluoro-1-hydroxycyclohexyl)-N-(4,4-dimethylcyclohexyl)-2-(((2S,3R,4S,5R,6R)-5-hydroxy-6-(hydroxymethyl)-3-methoxy-4-(4-(3,4,5-trifluorophenyl)-1H-1,2,3-triazol-1-yl)tetrahydro-2H-pyran-2-yl)thio)acetamide], which IC50 [4] is on record?
Its IC50 is 390 nM.

`CN(CCC1CCOCC1)C(=O)[C@H](S[C@@H]1O[C@H](CO)[C@H](O)[C@H](n2cc(-c3cc(F)c(F)c(F)c3)nn2)[C@H]1O)C1(O)CCOCC1` [Example 2.41.216R., (R)-2-(((2S,3R,4S,5R,6R)-3,5-Dihydroxy-6-(hydroxymethyl)-4-(4-(3,4,5-trifluorophenyl)-1H-1,2,3-triazol-1-yl)tetrahydro-2H-pyran-2-yl)thio)-2-(4-hydroxytetrahydro-2H-pyran-4-yl)-N-methyl-N-(2-(tetrahydro-2H-pyran-4-yl)ethyl)acetamide] was tested. Which IC50 [5] did it give?
The IC50 was 1530 nM.

Which IC50 (Table 10, hGal-3, read-out: IC50 (Gal-3 inhibition)) does the source give for `CCN(C(=O)C(S[C@@H]1O[C@H](CO)[C@H](O)[C@H](n2cc(-c3cc(F)c(F)c(F)c3)nn2)[C@H]1OC)C1(O)CCC(F)(F)CC1)C1CC1` (stereo partly shown) [Example 2.44.238.I.] here?
The IC50 was 40 nM.

`O=C([C@H](S[C@@H]1O[C@H](CO)[C@H](O)[C@H](n2cc(-c3cc(F)c(F)c(F)c3)nn2)[C@H]1O)C1(O)CCOCC1)N1CCc2ccccc21` [Example 2.41.209R., (R)-2-(((2S,3R,4S,5R,6R)-3,5-Dihydroxy-6-(hydroxymethyl)-4-(4-(3,4,5-trifluorophenyl)-1H-1,2,3-triazol-1-yl)tetrahydro-2H-pyran-2-yl)thio)-2-(4-hydroxytetrahydro-2H-pyran-4-yl)-1-(indolin-1-yl)ethan-1-one] was tested. Which IC50 [5] did it give?
Its IC50 is 1310 nM.

For `CO[C@@H]1[C@@H](n2cc(-c3cc(F)c(F)c(F)c3)nn2)[C@@H](O)[C@@H](CO)O[C@H]1SC(C(=O)N(C)C1CC(F)(F)C1)C1(O)CCC(F)(F)CC1` (stereo partly drawn) [Example 2.44.237.I., 2-(4,4-Difluoro-1-hydroxycyclohexyl)-N-(3,3-difluorocyclobutyl)-2-(((2S,3R,4S,5R,6R)-5-hydroxy-6-(hydroxymethyl)-3-methoxy-4-(4-(3,4,5-trifluorophenyl)-1H-1,2,3-triazol-1-yl)tetrahydro-2H-pyran-2-yl)thio)-N-methylacetamide], which IC50 [4] is on record?
The IC50 was 90 nM.

How did the IC50 [2] turn out when `CCC(O)C(S[C@@H]1O[C@H](CO)[C@H](O)[C@H](n2cc(-c3cc(F)c(F)c(F)c3)nn2)[C@H]1O)C(=O)N(C)CC1CC1` (stereo partly drawn) [Example 2.60.218., N-(Cyclopropylmethyl)-2-(((2S,3R,4S,5R,6R)-3,5-dihydroxy-6-(hydroxymethyl)-4-(4-(3,4,5-trifluorophenyl)-1H-1,2,3-triazol-1-yl)tetrahydro-2H-pyran-2-yl)thio)-3-hydroxy-N-methylpentanamide] was run?
The IC50 was 120 nM.

How did the IC50 (Gal-3 inhibition, Table 5, read-out: IC50) turn out when “(R)-2-(4,4-Difluoro-1-hydroxycyclohexyl)-2-(((2S,3R,4S,5R,6R)-3,5-dihydroxy-6-(hydroxymethyl)-4-(4-(3,4,5-trifluorophenyl)-1H-1,2,3-triazol-1-yl)tetrahydro-2H-pyran-2-yl)thio)-1-(piperidin-1-yl)ethan-1-one [Example 2.44.208R.]” was run?
The IC50 was 3360 nM.

Which IC50 (Gal-3 inhibition, Table 3, read-out: IC50) does the source give for `CCN(C)C(=O)[C@H](S[C@@H]1O[C@H](CO)[C@H](O)[C@H](n2cc(-c3cc(F)c(F)c(F)c3)nn2)[C@H]1O)C(C)(C)O` [Example 2.31.203R., (R)-2-(((2S,3R,4S,5R,6R)-3,5-Dihydroxy-6-(hydroxymethyl)-4-(4-(3,4,5-trifluorophenyl)-1H-1,2,3-triazol-1-yl)tetrahydro-2H-pyran-2-yl)thio)-N-ethyl-3-hydroxy-N,3-dimethylbutanamide] here?
The IC50 was 3880 nM.
